Assays:
Type in all cases: cell-based, human
[1] = system: p-ERK in AGS cells (KRAS^G12D mutation); assay: Cell p-ERK detection assay; conditions: 3 h incubation, HTRF
Method: AGS was purchased from ATCC; Cat. NO.: CRL-1739; F12K was purchased from Gibco; Cat. NO.: 21127-022; FBS was purchased from Gibco; Cat. NO.: 10099-141C; Trypsin (containing EDTA) was purchased from Gibco; Cat. NO.: 25200-072; DMSO was purchased from VWRAMRESCO; Cat. NO.: 0231-500ML; 96-well cell culture plate was purchased from Corning; Cat. NO.: 3599; An white background opaque 96-well plate was purchased from Cisbio; Cat. NO.: 66PL96025; Advance ERK phospho-T202/Y204 kit was purchased from Cisbio; Cat. NO.: 64AERPEH; Cell Counters were purchased from CHEMOMETEC; Model NO.: NC-200; microplate reader was purchased from PerkinElmer; Model NO.: Envison.
AGS is an endogenous human gastric adenocarcinoma cell line containing KRAS^G12D mutation, cultured in F12K+10% FBS medium. On the first day of the experiment, cells in the logarithmic growth phase were taken, digested with trypsin (containing EDTA), collected, and counted, and approximately 20,000 cells/well were inoculated in 96-well cell culture plates and cultured overnight in a 5% CO2 incubator. A 1000×3.16-fold gradient concentration stock of the compound was prepared using DMSO, diluted 200-fold into a 5× compound stock using the medium described above, and a 5× compound stock was added to each cell culture well the day after cell inoculating at a final concentration of 1× and a DMSO content of 0.1%. DMSO was used as an experimental control. After the compound was added and the incubation was continued for 3 h, the medium in the culture wells was removed, […] of cell lysis solution (from Advance ERK phospho-T202/Y204 kit, the same below) was added to each well, mixed well and incubated for 30 min, then […] of the mixed solution was transferred to a white background opaque 96-well plate, and another well was taken as a blank well with adding […] of cell lysis solution. After the transfer, […] of p-ERK HTRF antibody mixed solution (from Advance ERK phospho-T202/Y204 kit) was added to each well, after incubation for 4 h, HTRF fluorescence value (RLU) was read by a microplate reader, and p-ERK level inhibition ratio of the compound was calculated IR (%)=(RLU control-RLU compound)/(RLU control-RLU blank)×100%, compound concentration and corresponding cell p-ERK level inhibition ratio were fitted using Prism 8 four-parameter method, and IC50 value was calculated.

[2] = system: AGS cells (KRAS^G12D mutation); assay: Cell proliferation inhibition assay (3D, CellTiter-Glo), AGS; conditions: 3D cell model, 5 days
From the text: (§1) AsPC-1 was purchased from ATCC; Cat. NO.: CRL-1682; AGS was purchased from ATCC; Cat. NO.: CRL-1739; RPMI1640 was purchased from Gibco; Cat. NO.: 11875-093 2235123; F12K was purchased from Gibco; Cat. NO.: 21127-022; FBS was purchased from Gibco; Cat. NO.: 10099-141C; Trypsin (containing EDTA) was purchased from Gibco; Cat. NO.: 25200-072; CellTiter Glo-3D was purchased from Progema; Cat. NO.: G9683; 384-well sphere plates were purchased from coming; Cat. NO.: 3830; White background opaque 384-well plates were purchased from coming; Cat. NO.: 3570; Cell Counters were purchased from CHEMOMETEC; Model NO.: NC-200; microplate reader was purchased from PerkinElmer; Model NO.: Envison;
(§2) AsPC-1 is an endogenous human pancreatic cancer cell containing KRAS^G12D mutation, which is cultured in RPMI-1640 medium containing 10% FBS; AGS human gastric cancer cell line containing KRAS^G12D mutation, cultured in F-12K medium containing 10% FBS. Cells in the logarithmic growth phase were taken, digested with trypsin (containing EDTA), harvested and counted, and inoculated with 800 AsPC-1 cells/well or 400 AGS cells/well, respectively, in 384-well sphere plates and cultured overnight at 5% C02 to establish a 3D cell model. A 3.16-fold gradient concentration stock solution of 1000× compound was prepared using DMSO, diluted 100-fold into a 10× compound stock solution using media, and a 10× compound stock solution was added to each cell culture well the day after cell inoculating at a final concentration of 1× with a DMSO content of 0.1%. DMSO was used as an experimental control (control) and culture medium as a blank control (blank). After the addition of compounds, the cells were cultured for 5 days. […] CellTiter-Glo working solution was added to each well, mixed well, and incubated for 30 min. After standing for 30 min at room temperature, 40 μl of the mixed solution was transferred to a white background opaque 384-well plate. Luminescence chemiluminescence value was read on a microplate reader, and the cell proliferation inhibition ratio was calculated, IR (%)=(RLU control-RLU compound)/(RLU control-RLU blank)×100%. XLFit four-parameter method was used to fit the gradient dilution concentration of compounds and the corresponding cell proliferation inhibition ratio, and the IC50 value was calculated. […] Results for exemplary of the example compounds are shown in Table 3 below. - indicates not detected.

[3] = system: AsPC-1 cells (KRAS^G12D mutation); assay: Cell proliferation inhibition assay (3D, CellTiter-Glo), AsPC-1; conditions: 3D cell model, 5 days
From the text: as §1, §2

| IC50 [1] | IC50 [2] | IC50 [3] | SMILES | IC50 ([1]; Homo sapiens, AGS, 3 h) | IC50 ([2]; Homo sapiens, AGS, 120 h) | IC50 ([3]; Homo sapiens, ASPC1, 120 h) |
| --- | --- | --- | --- | --- | --- | --- |
| – | – | – | C#Cc1cccc2cc(N)c(F)c(-c3ncc4c(N5C[C@H]6CC[C@@H](C5)N6)nc(OCC56CC(=C)CN5CC(=C)C6)nc4c3F)c12 [Example Z213, 4-(4-((1R,5S)-3,8-diazabicyclo[3.2.1]octan-3-yl)-2-((2,6-dimethylenetetrahydro-1H-pyrrolizin-7a(5H)-yl)methoxy)-8-fluoropyrido[4,3-d]pyrimidin-7-yl)-5-ethynyl-3-fluoronaphthalen-2-amine] | 62.9 nM | 57.5 nM | 335 nM |
| – | – | – | C#Cc1cccc2cc(O)cc(-c3ncc4c(N5C[C@@H]6CC[C@@H](N6)[C@H]5C)nc(OCC56CC(C)CN5CC(C)C6)nc4c3F)c12 (stereo partly drawn) [Example Z207, 4-(2-((2,6-dimethyltetrahydro-1H-pyrrolizin-7a(5H)-yl)methoxy)-8-fluoro-4-((1R, 2R, 5S)-2-methyl-3,8-diazabicyclo[3.2.1]octan-3-yl)pyrido[4,3-d]pyrimidin-7-yl)-5-ethynylnaphthalen-2-ol] | 13.4 nM | 32 nM | 91.1 nM |
| – | – | – | C#Cc1c(F)ccc2cc(O)cc(-c3ncc4c(N5C[C@H]6CC[C@@H](C5)N6)nc(OCC56CC(=C)CN5[C@H]5C[C@H]5C6)nc4c3F)c12 (stereo partly drawn) [Example Z210, 4-(4-((1R,5S)-3,8-diazabicyclo[3.2.1]octan-3-yl)-8-fluoro-2-(((1aS,6aS)-4-methylenehexahydrocyclopropa[b]pyrrolizin-5a(3H)-yl)methoxy)pyrido[4,3-d]pyrimidin-7-yl)-5-ethynyl-6-fluoronaphthalen-2-ol] | 16.6 nM | 26 nM | 176 nM |
| 5.47 nM | 4.8 nM | 71.9 nM | C#Cc1c(F)ccc2cc(O)cc(-c3ncc4c(N5C[C@H]6CC[C@@H](C5)N6)nc(OCC56CC(=C)CN5CC(=C)C6)nc4c3Cl)c12 [Example Z211, 4-(4-((1R,5S)-3,8-diazacyclo[3.2.1]octan-3-yl)-8-chloro-2-((2,6-dimethylenetetrahydro-1H-pyrrolizin-7a(5H)-yl)methoxy)pyrido[4,3-d]pyrimidin-7-yl)-5-ethynyl-6-fluoronaphthalen-2-ol] | – | – | – |
| – | – | – | C#Cc1cccc2cc(O)cc(-c3ncc4c(N5C[C@H]6CC[C@@H](C5)N6)nc(OCC56CCC7(CC7)N5CC(=C)C6)nc4c3F)c12 (stereo partly drawn) [Example Z22, 4-(4-((1R,5S)-3,8-diazabicyclo[3.2.1]oct-3-yl)-8-fluoro-2-((6′-methylenetetrahydrospiro[cyclopropane-1,3′-pyrrolizin]-7a′(5′H)-yl)methoxy)pyrido[4,3-d]pyrimidin-7-yl)-5-ethynylnaphthalen-2-ol] | 2.41 nM | 10.8 nM | 75.4 nM |
| – | – | – | C#Cc1cccc2cc(O)cc(-c3ncc4c(N5C[C@H]6CC[C@@H](C5)N6)nc(OCC56CCCN5CCC6=C)nc4c3F)c12 (stereo partly drawn) [Example Z25, 4-(4-((1R,5S)-3,8-diazabicyclo[3.2.1]octan-3-yl)-8-fluoro-2-((1-methylenetetrahydro-1H-pyrrolizin-7a(5H)-yl)methoxy)pyrido[4,3-d]pyrimidin-7-yl)-5-ethynylnaphthalen-2-ol] | 6.84 nM | 24.9 nM | 70.7 nM |
| – | – | – | C#Cc1cccc2cc(O)cc(-c3ncc4c(N5C[C@H]6CC[C@@H](C5)N6)nc(OCC56CC(=C)CN5CC5(CC5)C6)nc4c3F)c12 (stereo partly drawn) [Example Z23, 4-(4-((1R,5S)-3,8-diazabicyclo[3.2.1]octan-3-yl)-8-fluoro-2-((6′-methylenedihydro-1′H,3′H-spiro[cyclopropane-1,2′-pyrrolizin]-7a′(5′H)-yl)methoxy)pyrido[4,3-d]pyrimidin-7-yl)-5-ethynylnaphthalen-2-ol] | 0.76 nM | 4.7 nM | 33.2 nM |
| 2.9 nM | 5.2 nM | 36.6 nM | C#Cc1cccc2cc(O)cc(-c3ccc4c(N5CC6CCC(C5)N6)nc(OCC56CCCN5CC(=C)C6)nc4c3F)c12 [Example Z99, 4-(4-(1R,5S)-3,8-diazabicyclo[3.2.1]octan-3-yl)-8-fluoro-2-((2-methylenetetrahydro-1H-pyrrolizin-7a(5H)-yl)methoxy)quinazolin-7-yl)-5-ethynylnaphthalen-2-ol] | – | – | – |
| – | – | – | C=C1CN2CCCC2(COc2nc(N3C[C@H]4CC[C@@H](C3)N4)c3cnc(-c4cc(O)cc5cccc(F)c45)c(F)c3n2)C1 (stereo partly drawn) [Example Z24, 4-(4-((1R,5S)-3,8-diazabicyclo[3.2.1]octan-3-yl)-8-fluoro-2-((2-methylenetetrahydro-1H-pyrrolizin-7a(5H)-yl)methoxy)pyrido[4,3-d]pyrimidin-7-yl)-5-fluoronaphthalen-2-ol] | 3.59 nM | 3.3 nM | 56 nM |
| 1.19 nM | 5.13 nM | 49.4 nM | C#Cc1c(F)ccc2cc(O)cc(-c3ncc4c(N5C[C@H]6CC[C@@H](C5)N6)nc(OCC56CC(=C)CN5CC(=C(F)F)C6)nc4c3F)c12 (stereo partly drawn) [Example Z215] | – | – | – |
| – | – | – | C#Cc1cccc2cccc(-c3ncc4c(N5C[C@H]6CC[C@@H](C5)N6)nc(OCC56CC(=C)CN5CC(=C)C6)nc4c3F)c12 [Example Z190, 4-((1R,5S)-3,8-diazabicyclo[3.2.1]octan-3-yl)-2-((2,6-dimethylenetetrahydro-1H-pyrrolizin-7a(5H)-yl)methoxy)-7-(8-ethynylnaphthalen-1-yl)-8-fluoropyrido[4,3-d]pyrimidine] | 105 nM | 204 nM | 485 nM |
| 0.6 nM | 6.5 nM | 14.7 nM | C#Cc1cccc2cc(O)cc(-c3ncc4c(N5C[C@H]6CC[C@@H](C5)N6)nc(OCC56CC(=C)CN5CC(=C)C6)nc4c3F)c12 [Example Z21] | – | – | – |

| SMILES | IC50 [1] | IC50 [2] | IC50 [3] | IC50 ([1]; Homo sapiens, AGS, 3 h) | IC50 ([2]; Homo sapiens, AGS, 120 h) | IC50 ([3]; Homo sapiens, ASPC1, 120 h) |
| --- | --- | --- | --- | --- | --- | --- |
| C#Cc1cccc2cc(N)cc(-c3ncc4c(N5C[C@H]6CC[C@@H](C5)N6)nc(OCC56CC(=C)CN5CC(=C)C6)nc4c3F)c12 [Example Z214, 4-(4-((1R,5S)-3,8-diazabicyclo[3.2.1]octan-3-yl)-2-((2,6-dimethylenetetrahydro-1H-pyrrolizin-7a(5H)-yl)methoxy)-8-fluoropyrido[4,3-d]pyrimidin-7-yl)-5-ethynylnaphthalen-2-amine] | 105 nM | 106 nM | 611 nM | – | – | – |
| C#Cc1cccc2cc(N)cc(-c3ncc4c(N5C[C@H]6CC[C@@H](C5)N6)nc(OCC56CC(=C)CN5CC(=C)C6)nc4c3F)c12 [Example Z206, 4-(4-((1R,5S)-3,8-diazabicyclo[3.2.1]octan-3-yl)-2-((2,6-dimethylenetetrahydro-1H-pyrrolizin-7a(5H)-yl)methoxy)-8-fluoropyrido[4,3-d]pyrimidin-7-yl)-5-ethynylnaphthalen-2-amine] | 5.47 nM | 20.1 nM | 35.4 nM | – | – | – |

Reference: patent US20240270758A1, “PYRIDINO-OR PYRIMIDO-CYCLIC COMPOUND, PREPARATION METHOD THEREFOR AND MEDICAL USE THEREOF” (Genfleet Therapeutics (Shanghai) Inc., priority 2021, published 2024)
